{"source": "patent US20040248275A1", "about": "“Engineered bacterial aggregates” (priority 2003, published 2004)", "type_in_all_cases": "cell-based", "key": {"Aeromonas hydrophila": {"test_system": "Aeromonas hydrophila", "test": "QUAT susceptibility of single-species aggregates (survivors)", "conditions": "for No. of survivors after 20 minutes following treatment of 100 μm aggregate with 1 mM QUAT: 100 μm single species aggregate; for No. of survivors (%) at 20 min: 1 mM QUAT", "protocol": "(§1) In another version of the present invention, one would test a biocide with the aggregates described above in the following manner: Volumes (1-10 mL) of customized aggregate suspensions, formed as described earlier, are held in suitable containers (microtitre plate well, mini-centrifuge tubes, pyrex glass test-tubes) to which are added appropriate concentrations of the test biocide (volume 5-25% of suspension volume). After a chosen contact times have elapsed (1-30 minutes) samples are removed to a neutralizer solution appropriate to the chosen biocide containing the antagonistic sugar (50 mM) for the chosen lectin (See Table 1). The aggregates disperse into single cell suspension that upon which simple plate count estimates of the viable surviving cell number may be conducted. Control experiments are conducted on disaggregated populations created by resuspending the customized aggregates in the antagonistic sugar (50 mM) prior to the addition of biocide.\n(§2) Single species (Pseudomonas sp. 2881, Aeromonas hydrophila and Corynebacterium aquaticum) aggregates of 10, 50 and 100 μm in size were constructed and treated with different concentrations of three simple quaternary ammonium compounds (n-alkyl dimethyl benzyl ammonium chloride where n=12, 14 or 16)."}, "[1]": {"test_system": "Corynebacterium aquaticum", "test": "QUAT susceptibility of single-species aggregates (survivors)", "conditions": "for No. of survivors after 20 minutes following treatment of 100 μm aggregate with 1 mM QUAT: 100 μm single species aggregate; for No. of survivors (%) at 20 min: 1 mM QUAT", "protocol": "as §1, §2"}, "Pseudomonas sp. 2881 [2]": {"test_system": "Pseudomonas sp. 2881", "test": "QUAT susceptibility of single-species aggregates (survivors)", "conditions": "for No. of survivors after 20 minutes following treatment of 100 μm aggregate with 1 mM QUAT: 100 μm single species aggregate; for No. of survivors (%) at 20 min: 1 mM QUAT", "protocol": "as §1, §2"}, "A. hydrophila": {"test_system": "A. hydrophila", "test": "QUAT susceptibility in structured multi-species aggregates (survivors)", "conditions": "1 mM QUAT", "protocol": "(§3) In another method of the present invention, one would form a multilamellar spherical aggregate in the following manner: In order to construct lamellar aggregates, aggregates of defined size should be prepared for the ‘core’ under XS (see i or ii above). Cores, either homogeneous or heterogeneous, are harvested by centrifugation (3000 g 10 minutes) and resuspended in the original volume of phosphate buffered saline (pH 7.1). Mix equal parts of the harvested core aggregates and a washed suspension of the ‘coating organism’ (1×10^7-5×10^8 cells/mL).\nas §1\n(§4) Binary lamellar aggregates were constructed for all combinations of the three test species. Core aggregate size was 50 microns diameter. Cores were coated with an equal number of the partner species. Each test species served as both core-aggregate and shell in these experiments. […] When the cells were aggregated prior to exposure to QUATs, then it became apparent that there was not only a protection afforded by aggregation but that the relative location of one species to the other affected the inactivation. Selected data is presented that compares inactivation of unordered (homogeneous) aggregates of two different species with ones where each of the partner organisms serves as either the core or shell to the other."}, "C. aquaticum": {"test_system": "C. aquaticum", "test": "QUAT susceptibility in structured multi-species aggregates (survivors)", "conditions": "1 mM QUAT", "protocol": "as §3, §1, §4"}, "Pseudomonas sp. 2881 [3]": {"test_system": "Pseudomonas sp. 2881", "test": "QUAT susceptibility in structured multi-species aggregates (survivors)", "conditions": "1 mM QUAT", "protocol": "as §3, §1, §4"}, "[4]": {"conditions": "single-species aggregate Approx. 10 μm"}, "[5]": {"conditions": "single-species aggregate Approx. 50 μm"}, "[6]": {"conditions": "single-species aggregate Approx. 100 μm"}, "[7]": {"conditions": "100 μm A. hydrophila - C. aquaticum aggregate, Unordered mixture"}, "[8]": {"conditions": "100 μm Pseudomonas sp. 2881 - A. hydrophila aggregate, Unordered mixture"}, "[9]": {"conditions": "100 μm aggregate, A. hydrophila shell, C. aquaticum core"}, "[10]": {"conditions": "100 μm aggregate, A. hydrophila shell, Pseudomonas sp. 2881 core"}, "[11]": {"conditions": "100 μm aggregate, C. aquaticum shell, A. hydrophila core"}, "[12]": {"conditions": "100 μm aggregate, Pseudomonas sp. 2881 shell, A. hydrophila core"}, "[13]": {"conditions": "100 μm Pseudomonas sp. 2881 - C. aquaticum aggregate, Unordered mixture"}, "[14]": {"conditions": "100 μm aggregate, C. aquaticum shell, Pseudomonas sp. 2881 core"}, "[15]": {"conditions": "100 μm aggregate, Pseudomonas sp. 2881 shell, C. aquaticum core"}}}
{"substance": "n-alkyl dimethyl benzyl ammonium chloride [C16 QUAT]", "values": [{"measurement": "No. of survivors after 20 minutes following treatment of 100 μm aggregate with 1 mM QUAT", "setting": "Aeromonas hydrophila", "result": 0.594}, {"measurement": "No. of survivors after 20 minutes following treatment of 100 μm aggregate with 1 mM QUAT", "setting": "[1]", "result": 0.266}, {"measurement": "No. of survivors after 20 minutes following treatment of 100 μm aggregate with 1 mM QUAT", "setting": "Pseudomonas sp. 2881 [2]", "result": 0.724}]}
{"substance": "n-alkyl dimethyl benzyl ammonium chloride [C14 QUAT]", "values": [{"measurement": "No. of survivors (%) at 20 min", "setting": "Aeromonas hydrophila; No aggregate (free cells)", "result": "<0.00001", "unit": "%"}, {"measurement": "No. of survivors (%) at 20 min", "setting": "Aeromonas hydrophila; [4]", "result": 0.0041, "unit": "%"}, {"measurement": "No. of survivors (%) at 20 min", "setting": "Aeromonas hydrophila; [5]", "result": 0.0282, "unit": "%"}, {"measurement": "No. of survivors (%) at 20 min", "setting": "Aeromonas hydrophila; [6]", "result": 0.4197, "unit": "%"}, {"measurement": "No. of survivors after 20 minutes following treatment of 100 μm aggregate with 1 mM QUAT", "setting": "Aeromonas hydrophila", "result": 0.420}, {"measurement": "No. of survivors (%) at 20 min", "setting": "[1]; No aggregate (free cells)", "result": "<0.00001", "unit": "%"}, {"measurement": "No. of survivors (%) at 20 min", "setting": "[1]; [4]", "result": 0.0002, "unit": "%"}, {"measurement": "No. of survivors (%) at 20 min", "setting": "[1]; [5]", "result": 0.0027, "unit": "%"}, {"measurement": "No. of survivors (%) at 20 min", "setting": "[1]; [6]", "result": 0.0829, "unit": "%"}, {"measurement": "No. of survivors after 20 minutes following treatment of 100 μm aggregate with 1 mM QUAT", "setting": "[1]", "result": 0.083}, {"measurement": "No. of survivors (%) at 20 min", "setting": "Pseudomonas sp. 2881 [2]; No aggregate (free cells)", "result": 0.001, "unit": "%"}, {"measurement": "No. of survivors (%) at 20 min", "setting": "Pseudomonas sp. 2881 [2]; [4]", "result": 0.021, "unit": "%"}, {"measurement": "No. of survivors (%) at 20 min", "setting": "Pseudomonas sp. 2881 [2]; [5]", "result": 0.0598, "unit": "%"}, {"measurement": "No. of survivors (%) at 20 min", "setting": "Pseudomonas sp. 2881 [2]; [6]", "result": 0.5942, "unit": "%"}, {"measurement": "No. of survivors after 20 minutes following treatment of 100 μm aggregate with 1 mM QUAT", "setting": "Pseudomonas sp. 2881 [2]", "result": 0.594}, {"measurement": "% No. survivors after 20 minutes", "setting": "A. hydrophila; [7]", "result": 0.172, "unit": "%"}, {"measurement": "% No. survivors after 20 minutes", "setting": "A. hydrophila; [8]", "result": 0.112, "unit": "%"}, {"measurement": "% No. survivors after 20 minutes", "setting": "A. hydrophila; [9]", "result": 0.131, "unit": "%"}, {"measurement": "% No. survivors after 20 minutes", "setting": "A. hydrophila; [10]", "result": 0.0065, "unit": "%"}, {"measurement": "% No. survivors after 20 minutes", "setting": "A. hydrophila; [11]", "result": 0.365, "unit": "%"}, {"measurement": "% No. survivors after 20 minutes", "setting": "A. hydrophila; [12]", "result": 0.176, "unit": "%"}, {"measurement": "% No. survivors after 20 minutes", "setting": "C. aquaticum; [7]", "result": 0.0364, "unit": "%"}, {"measurement": "% No. survivors after 20 minutes", "setting": "C. aquaticum; [13]", "result": 0.0412, "unit": "%"}, {"measurement": "% No. survivors after 20 minutes", "setting": "C. aquaticum; [9]", "result": 0.0457, "unit": "%"}, {"measurement": "% No. survivors after 20 minutes", "setting": "C. aquaticum; [11]", "result": ">0.001", "unit": "%"}, {"measurement": "% No. survivors after 20 minutes", "setting": "C. aquaticum; [14]", "result": ">0.001", "unit": "%"}, {"measurement": "% No. survivors after 20 minutes", "setting": "C. aquaticum; [15]", "result": 0.0698, "unit": "%"}, {"measurement": "% No. survivors after 20 minutes", "setting": "Pseudomonas sp. 2881 [3]; [8]", "result": 0.241, "unit": "%"}, {"measurement": "% No. survivors after 20 minutes", "setting": "Pseudomonas sp. 2881 [3]; [13]", "result": 0.264, "unit": "%"}, {"measurement": "% No. survivors after 20 minutes", "setting": "Pseudomonas sp. 2881 [3]; [10]", "result": 0.319, "unit": "%"}, {"measurement": "% No. survivors after 20 minutes", "setting": "Pseudomonas sp. 2881 [3]; [14]", "result": 0.425, "unit": "%"}, {"measurement": "% No. survivors after 20 minutes", "setting": "Pseudomonas sp. 2881 [3]; [12]", "result": 0.147, "unit": "%"}, {"measurement": "% No. survivors after 20 minutes", "setting": "Pseudomonas sp. 2881 [3]; [15]", "result": 0.219, "unit": "%"}]}
{"substance": "n-alkyl dimethyl benzyl ammonium chloride [C12 QUAT]", "values": [{"measurement": "No. of survivors after 20 minutes following treatment of 100 μm aggregate with 1 mM QUAT", "setting": "Aeromonas hydrophila", "result": 0.635}, {"measurement": "No. of survivors after 20 minutes following treatment of 100 μm aggregate with 1 mM QUAT", "setting": "[1]", "result": 0.240}, {"measurement": "No. of survivors after 20 minutes following treatment of 100 μm aggregate with 1 mM QUAT", "setting": "Pseudomonas sp. 2881 [2]", "result": 0.711}]}
